# Assay results reported in ChEMBL document CHEMBL5113383, “Application of the All-Hydrocarbon Stapling Technique in the Design of Membrane-Active Peptides” (J Med Chem, 2022).
# Positions of bridges follow the written chain, without caps; N, C: chain ends. Non-standard residues stand in square brackets, D forms with d. Residues, ends and D or L forms follow the SMILES beside them. R8 = C=CCCCCCC[C@@](C)(N)C(=O)O; S5 = C=CCCC[C@](C)(N)C(=O)O
# Experiments:
# Candida albicans [1] = assay: Antimicrobial activity against Candida albicans SC5314; type: functional
# Candida albicans [2] = assay: Antimicrobial activity against Candida albicans 901; type: functional
# Candida albicans [3] = assay: Antimicrobial activity against Candida albicans 904; type: functional
# Candida tropicalis [4] = assay: Antimicrobial activity against Candida tropicalis ATCC 20026; type: functional
# Candida tropicalis [5] = assay: Antimicrobial activity against Candida tropicalis 895; type: functional
# Nakaseomyces glabratus [6] = assay: Antimicrobial activity against Candida glabrata ATCC 1182; type: functional
# Nakaseomyces glabratus [7] = assay: Antimicrobial activity against Candida glabrata 896; type: functional
# [Candida] auris [8] = Antimicrobial activity against Candida auris 918; type: functional; conditions: Candidozyma auris
# [Candida] auris [9] = Antimicrobial activity against Candida auris 919; type: functional; conditions: Candidozyma auris
# Pichia kudriavzevii = assay: Antimicrobial activity against Candida krusei ATCC 2340; type: functional
# Candida parapsilosis = assay: Antimicrobial activity against Candida parapsilosis ATCC 22010; type: functional; conditions: Lodderomyces parapsilosis
# [10] = Hemolytic activity in human erythrocytes incubated for 30 mins; type: toxicity, cell-based, Erythrocyte
# [11] = Hemolytic activity in human erythrocytes incubated for 1 hr; type: toxicity, cell-based, Erythrocyte
Compound,MIC (Candida albicans [1]) [µg/mL],MIC (Candida albicans [2]) [µg/mL],MIC (Candida albicans [3]) [µg/mL],MIC (Candida tropicalis [4]) [µg/mL],MIC (Candida tropicalis [5]) [µg/mL],MIC (Nakaseomyces glabratus [6]) [µg/mL],MIC (Nakaseomyces glabratus [7]) [µg/mL],MIC ([Candida] auris [8]) [µg/mL],MIC ([Candida] auris [9]) [µg/mL],MIC (Pichia kudriavzevii) [µg/mL],MIC (Candida parapsilosis) [µg/mL],HC50 at 0.5 h [10] [nM],HC50 at 1 h [11] [µM],hemolysis at 1 h ([11]; read-out: Activity) [%]
CC[C@H](C)[C@H](NC(=O)[C@H](CC(=O)O)NC(=O)[C@H](Cc1ccccc1)NC(=O)[C@H](CC(C)C)NC(=O)CNC(C)=O)C(=O)N[C@H](C(=O)N[C@@H](CCCCN)C(=O)N[C@@H](CCCCN)C(=O)N[C@@]1(C)CCC/C=C\CCC[C@@](C)(C(N)=O)NC(=O)[C@H](CO)NC(=O)[C@H](CCC(=O)O)NC(=O)[C@H](C)NC1=O)[C@@H](C)CC (Ac-GLFDIIKK[S5]AES[S5]-NH2; staple (Z) 9-13),> 64,> 128,> 128,> 128,32,> 128,> 128,> 128,> 128,> 128,> 128,,,
CC[C@H](C)[C@@H]1NC(=O)[C@@](C)(NC(=O)[C@H](CC(=O)O)NC(=O)[C@H](Cc2ccccc2)NC(=O)[C@H](CC(C)C)NC(=O)CNC(C)=O)CCC/C=C\CCC[C@@](C)(C(=O)N[C@@H](C)C(=O)N[C@@H](CCC(=O)O)C(=O)N[C@@H](CO)C(=O)N[C@@H](Cc2ccccc2)C(N)=O)NC(=O)[C@H](CCCCN)NC(=O)[C@H](CCCCN)NC1=O (Ac-GLFD[S5]IKK[S5]AESF-NH2; staple (Z) 5-9),16,> 128,> 128,> 128,16,> 128,> 128,> 128,> 128,> 128,> 128,,,
CC[C@H](C)[C@H](NC(=O)[C@H](CCCCN)NC(=O)[C@]1(C)CCC/C=C\CCC[C@](C)(NC(=O)[C@H](CC(C)C)NC(=O)CNC(C)=O)C(=O)N[C@@H](CC(=O)O)C(=O)N[C@@H]([C@@H](C)CC)C(=O)N[C@@H]([C@@H](C)CC)C(=O)N1)C(=O)N[C@@H](C)C(=O)N[C@@H](CCC(=O)O)C(=O)N[C@@H](CO)C(=O)N[C@@H](Cc1ccccc1)C(N)=O (Ac-GL[S5]DII[S5]KIAESF-NH2; staple (Z) 3-7),> 64,> 128,> 128,> 128,> 128,> 128,> 128,> 128,> 128,> 128,> 128,,,
CC[C@H](C)[C@H](NC(=O)[C@H](CCCCN)NC(=O)[C@H](CCCCN)NC(=O)[C@]1(C)CCC/C=C\CCC[C@](C)(NC(=O)CNC(C)=O)C(=O)N[C@@H](Cc2ccccc2)C(=O)N[C@@H](CC(=O)O)C(=O)N[C@@H]([C@@H](C)CC)C(=O)N1)C(=O)N[C@@H](C)C(=O)N[C@@H](CCC(=O)O)C(=O)N[C@@H](CO)C(=O)N[C@@H](Cc1ccccc1)C(N)=O (Ac-G[S5]FDI[S5]KKIAESF-NH2; staple (Z) 2-6),> 64,> 128,> 128,> 128,16,> 128,128,> 128,> 128,> 128,> 128,,,
CC(=O)N[C@@H](CCCCN)C(=O)N[C@@]1(C)CCC/C=C\CCC[C@@](C)(C(=O)N[C@@H](CCCCN)C(N)=O)NC(=O)[C@H](C)NC(=O)[C@H](CCCCN)NC(=O)[C@H](Cc2c[nH]c3ccccc23)NC1=O (Ac-K[S5]WKA[S5]K-NH2; staple (Z) 2-6),,,,,,,,,,,,1400,,
CC(=O)N[C@@H](CCCCN)C(=O)N[C@@]1(C)CCC/C=C\CCC[C@@](C)(C(=O)N[C@@H](CCCCN)C(N)=O)NC(=O)[C@H](CC(C)C)NC(=O)[C@H](CCCCN)NC(=O)[C@H](Cc2c[nH]c3ccccc23)NC1=O (Ac-K[S5]WKL[S5]K-NH2; staple (Z) 2-6),,,,,,,,,,,,< 1000,,
CC[C@H](C)[C@H](NC(=O)[C@H](CCCCN)NC(=O)[C@H](CCCCN)NC(=O)[C@@H](NC(=O)[C@]1(C)CCC/C=C\CCC[C@](C)(NC(C)=O)C(=O)N[C@@H](CC(C)C)C(=O)N[C@@H](Cc2ccccc2)C(=O)N[C@@H](CC(=O)O)C(=O)N1)[C@@H](C)CC)C(=O)N[C@@H](C)C(=O)N[C@@H](CCC(=O)O)C(=O)N[C@@H](CO)C(=O)N[C@@H](Cc1ccccc1)C(N)=O (Ac-[S5]LFD[S5]IKKIAESF-NH2; staple (Z) 1-5),> 64,32,> 128,> 128,> 128,> 128,> 128,> 128,> 128,> 128,128,,,
CC[C@H](C)[C@H](NC(=O)[C@H](CC(=O)O)NC(=O)[C@H](Cc1ccccc1)NC(=O)[C@H](CC(C)C)NC(=O)CN)C(=O)N[C@H](C(=O)N[C@@H](CCCCN)C(=O)N[C@@]1(C)CCC/C=C\CCC[C@@](C)(C(=O)N[C@@H](Cc2ccccc2)C(N)=O)NC(=O)[C@H](CCC(=O)O)NC(=O)[C@H](C)NC(=O)[C@H]([C@@H](C)CC)NC1=O)[C@@H](C)CC (H-GLFDIIK[S5]IAE[S5]F-NH2; staple (Z) 8-12),> 64,> 128,> 128,> 128,> 128,> 128,> 128,> 128,> 128,> 128,> 128,,,
CC[C@H](C)[C@@H]1NC(=O)[C@H](CCCCN)NC(=O)[C@@](C)(NC(=O)[C@@H](NC(=O)[C@@H](NC(=O)[C@H](CC(=O)O)NC(=O)[C@H](Cc2ccccc2)NC(=O)[C@H](CC(C)C)NC(=O)CN)[C@@H](C)CC)[C@@H](C)CC)CCC/C=C\CCC[C@@](C)(C(=O)N[C@@H](CO)C(=O)N[C@@H](Cc2ccccc2)C(N)=O)NC(=O)[C@H](C)NC1=O (H-GLFDII[S5]KIA[S5]SF-NH2; staple (Z) 7-11),> 64,> 128,> 128,> 128,> 128,> 128,> 128,> 128,> 128,> 128,> 128,,,
CC[C@H](C)[C@H](NC(=O)[C@H](CC(=O)O)NC(=O)[C@H](Cc1ccccc1)NC(=O)[C@H](CC(C)C)NC(=O)CN)C(=O)N[C@@]1(C)CCC/C=C\CCC[C@@](C)(C(=O)N[C@@H](CCC(=O)O)C(=O)N[C@@H](CO)C(=O)N[C@@H](Cc2ccccc2)C(N)=O)NC(=O)[C@H]([C@@H](C)CC)NC(=O)[C@H](CCCCN)NC(=O)[C@H](CCCCN)NC1=O (H-GLFDI[S5]KKI[S5]ESF-NH2; staple (Z) 6-10),> 64,> 128,> 128,> 128,> 128,> 128,> 128,> 128,> 128,> 128,> 128,,,
CC[C@H](C)[C@@H]1NC(=O)[C@H]([C@@H](C)CC)NC(=O)[C@@](C)(NC(=O)[C@H](Cc2ccccc2)NC(=O)[C@H](CC(C)C)NC(=O)CN)CCC/C=C\CCC[C@@](C)(C(=O)N[C@H](C(=O)N[C@@H](C)C(=O)N[C@@H](CCC(=O)O)C(=O)N[C@@H](CO)C(=O)N[C@@H](Cc2ccccc2)C(N)=O)[C@@H](C)CC)NC(=O)[C@H](CCCCN)NC1=O (H-GLF[S5]IIK[S5]IAESF-NH2; staple (Z) 4-8),> 64,> 128,> 128,> 128,> 128,> 128,> 128,> 128,> 128,> 128,> 128,,,
CC[C@H](C)[C@@H]1NC(=O)[C@H](CCCCN)NC(=O)[C@H](CCCCN)NC(=O)[C@](C)(NC(=O)[C@H](CC(N)=O)NC(=O)[C@@H](N)C(C)C)CCCCCC/C=C/CCC[C@@](C)(C(=O)N[C@H](C(=O)N[C@@H](CCCCN)C(=O)N[C@H](C(=O)N[C@H](C(=O)N[C@@H](CCCCN)C(N)=O)C(C)C)C(C)C)[C@@H](C)CC)NC(=O)[C@H](CCCCN)NC(=O)CNC(=O)[C@H](CC(C)C)NC1=O (H-VN[R8]KKILGK[S5]IKVVK-NH2; staple (E) 3-10),,,,,,,,,,,,,> 100,
CC[C@H](C)[C@@H]1NC(=O)[C@H](CCCCN)NC(=O)[C@H](CCCCN)NC(=O)[C@](C)(NC(=O)[C@H](CC(N)=O)NC(=O)[C@@H](N)C(C)C)CCCCCC/C=C\CCC[C@@](C)(C(=O)N[C@H](C(=O)N[C@@H](CCCCN)C(=O)N[C@H](C(=O)N[C@H](C(=O)N[C@@H](CCCCN)C(N)=O)C(C)C)C(C)C)[C@@H](C)CC)NC(=O)[C@H](CCCCN)NC(=O)CNC(=O)[C@H](CC(C)C)NC1=O (H-VN[R8]KKILGK[S5]IKVVK-NH2; staple (Z) 3-10),,,,,,,,,,,,,100,
CC[C@H](C)[C@H](NC(=O)[C@H](CCCCN)NC(=O)CNC(=O)[C@H](CC(C)C)NC(=O)[C@]1(C)CCC/C=C\CCC[C@](C)(NC(=O)[C@@H](N)C(C)C)C(=O)N[C@@H](Cc2c[nH]c3ccccc23)C(=O)N[C@@H](CCCCN)C(=O)N[C@@H](CCCCN)C(=O)N1)C(=O)N[C@H](C(=O)N[C@@H](CCCCN)C(=O)N[C@H](C(=O)N[C@H](C(=O)N[C@@H](CCCCN)C(N)=O)C(C)C)C(C)C)[C@@H](C)CC (H-V[S5]WKK[S5]LGKIIKVVK-NH2; staple (Z) 2-6),,,,,,,,,,,,,30,
OC(Cn1cncn1)(Cn1cncn1)c1ccc(F)cc1F [FLUCONAZOLE],0.5,> 64,> 64,1,> 128,2,> 128,> 128,> 128,64,1,,,
Ac-GLFDIIKKIAESF-NH2,> 64,> 128,> 128,> 128,> 128,> 128,> 128,> 128,> 128,> 128,> 128,,,
H-GIGKFLHSAKKFGKAFVGEIMNS-NH2,,,,,,,,,,,,,,< 2
H-GIMSSLMKKLAAHIAK-NH2,,,,,,,,,,,,,> 400,
